Measured values published in ChEMBL document CHEMBL1121609, “Peptide sweeteners. 4. Hydroxy and methoxy substitution of the aromatic ring in L-aspartyl-L-phenylalanine methyl ester. Structure-taste relationships” (J Med Chem, 1980).
Non-standard residues stand in square brackets, D forms with d. Residues, ends and D or L forms follow the SMILES beside them. ξ: configuration not given here. Tyr(3-OMe) = COc1cc(C[C@H](N)C(=O)O)ccc1O; Phe(3-OMe) = COc1cccc(C[C@H](N)C(=O)O)c1; Dopa = N[C@@H](Cc1ccc(O)c(O)c1)C(=O)O; ξPhe(3-OMe) = COc1cccc(CC(N)C(=O)O)c1; mTyr = N[C@@H](Cc1cccc(O)c1)C(=O)O; ξmTyr = NC(Cc1cccc(O)c1)C(=O)O; ξY = NC(Cc1ccc(O)cc1)C(=O)O; ξD = NC(CC(=O)O)C(=O)O

Experiment: Determined to achieve reproducible taste; + indicates ~1-5 times as sweet as sucrose
With COC(=O)[C@H](Cc1ccc(O)c(O)c1)NC(=O)[C@@H](N)CC(=O)O (H-Asp-[Dopa]-OMe) the Taste was ~1-5 times as sweet as sucrose. In the case of COC(=O)[C@H](Cc1ccc(O)c(OC)c1)NC(=O)C(N)CC(=O)O (stereo partly specified) (H-[ξD]-[Tyr(3-OMe)]-OMe), the Taste is reported as ~1-5 times as sweet as sucrose.

Experiment: Determined to achieve reproducible taste; ++ indicates ~10-40 times as sweet as sucrose
For COC(=O)C(Cc1ccccc1O)NC(=O)[C@@H](N)CC(=O)O (stereo partly specified), the Taste was ~10-40 times as sweet as sucrose. With COC(=O)[C@H](Cc1ccccc1O)NC(=O)[C@@H](N)CC(=O)O the Taste was ~10-40 times as sweet as sucrose. For COC(=O)[C@H](Cc1ccc(O)cc1)NC(=O)[C@@H](N)CC(=O)O (H-Asp-Tyr-OMe), the Taste was ~10-40 times as sweet as sucrose. With COC(=O)[C@H](Cc1cccc(OC)c1)NC(=O)[C@@H](N)CC(=O)O (H-Asp-[Phe(3-OMe)]-OMe) the Taste was ~10-40 times as sweet as sucrose. With COC(=O)[C@H](Cc1cccc(O)c1)NC(=O)[C@@H](N)CC(=O)O (H-Asp-[mTyr]-OMe) the Taste was ~10-40 times as sweet as sucrose. In the case of COC(=O)C(Cc1cccc(OC)c1)NC(=O)[C@@H](N)CC(=O)O (stereo partly specified) (H-Asp-[ξPhe(3-OMe)]-OMe), the Taste is reported as ~10-40 times as sweet as sucrose. In the case of COC(=O)C(Cc1ccc(O)cc1)NC(=O)[C@@H](N)CC(=O)O (stereo partly specified) (H-Asp-[ξY]-OMe), the Taste is reported as ~10-40 times as sweet as sucrose. With COC(=O)C(Cc1cccc(O)c1)NC(=O)[C@@H](N)CC(=O)O (stereo partly specified) (H-Asp-[ξmTyr]-OMe) the Taste was ~10-40 times as sweet as sucrose.

Experiment: Determined to achieve reproducible taste; + indicates ~ 1-5 times as sweet as sucrose
In the case of COC(=O)[C@H](Cc1ccc(OC)cc1)NC(=O)[C@@H](N)CC(=O)O (H-Asp-Tyr(Me)-OMe), the Taste is reported as ~ 1-5 times as sweet as sucrose.
